According to PubChem BioAssay (NCI):
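Cells were grown in 96-well plates and exposed to each compound for 48 hours at five concentrations; endpoints were interpolated linearly between bracketing concentrations, or set to the highest concentration if not reached. TGI marks complete inhibition of growth.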

Legend:
Test in all cases: growth of human tumour cells (NCI), 48 h
786-0 renal = tested on: 786-0 renal
CAKI-1 renal = tested on: CAKI-1 renal
COLO 205 colon = tested on: COLO 205 colon
DU-145 prostate = tested on: DU-145 prostate
HOP-62 NSCLC = tested on: HOP-62 NSCLC
HS 578T breast = tested on: HS 578T breast
MDA-MB-435 = tested on: MDA-MB-435
NCI-H23 lung = tested on: NCI-H23 lung
NCI/ADR-RES ovarian = tested on: NCI/ADR-RES ovarian
SF-268 CNS = tested on: SF-268 CNS
SR leukemia = tested on: SR leukemia
UO-31 renal = tested on: UO-31 renal
SK-MEL-2 melanoma = tested on: SK-MEL-2 melanoma

Structure (SMILES)	TGI (786-0 renal) [µM]	TGI (CAKI-1 renal) [µM]	TGI (COLO 205 colon) [µM]	TGI (DU-145 prostate) [µM]	TGI (HOP-62 NSCLC) [µM]	TGI (HS 578T breast) [µM]	TGI (MDA-MB-435) [µM]	TGI (NCI-H23 lung) [µM]	TGI (NCI/ADR-RES ovarian) [µM]	TGI (SF-268 CNS) [µM]	TGI (SR leukemia) [µM]	TGI (UO-31 renal) [µM]	TGI (SK-MEL-2 melanoma) [µM]
CCCCOP(=O)(OCCCC)C(NS(=O)(=O)c1ccccc1)(C(=O)OCC)C(F)(F)F (stereo not drawn)	88.1	> 100	38.7	> 100	61.4	> 100	56.3	> 100	64.6	> 100	> 100	> 100	–
CCOC(=O)n1c2ccccc2c2c(O)c(OC)c3c(c21)C(=O)NC3=O	98.5	64.7	52.2	> 100	> 100	> 100	> 100	> 100	81.3	–	87.9	> 100	> 100
COc1cc(C(C)(C)C)c(OC(=O)/C=C/C(=O)O/C=C/[N+](=O)[O-])c(C(C)(C)C)c1	> 100	57.5	> 100	> 100	> 100	63.9	58.1	42.6	57.8	75.7	> 100	76.9	–
O=C(O)C(C1NCCS1)N1Cc2ccccc2C1 (stereo not drawn)	> 100	> 100	> 100	> 100	> 100	–	> 100	> 100	> 100	–	> 100	> 100	> 100
COc1ccc(/C=N/N=C(N)N)c(C(=O)O)c1OC	–	> 100	> 10	–	–	–	–	> 100	–	> 100	–	> 100	–
CN(CCN(C)Cc1ccc(Cl)c(Cl)c1)CCN1CCCC1	64.6	> 100	41.2	> 100	> 100	> 45	24.3	> 100	> 100	> 100	–	36	59.9
COC(CO[Si](C)(C)N[Si](C)(C)OCC(OC)c1ccccc1)c1ccccc1 (stereo not drawn)	> 100	> 100	> 100	> 100	> 100	–	> 100	> 100	> 100	–	> 100	> 100	> 100
O=C(OCc1ccccc1[N+](=O)[O-])N1c2ccccc2[C@@]23O[C@]24CCC[C@H]3C#C/C=C\C#C[C@H]14	> 100	> 100	> 100	> 100	–	> 100	> 100	> 100	> 100	> 100	–	> 100	> 100
CCCc1c(OC)c(O)c2c(=O)cc(OC)c3c4c(OC)cc(=O)c5c(O)c(OC)c(CCC)c(c1c23)c54	13.5	16.5	14.9	13.2	18.9	–	14.3	26.6	25.1	19.6	> 100	11	22.1
